Several values for one entry are separate records, joined by “and”; a condition that tells them apart may be missing. Equal values may be shown once. Each block holds one compound with its values, some of them ahead of it.
Experiments:
[1] = FFT-EIS-interrogated lactate-detecting EAB sensor, real-time plasma lactate in a living rat; assay type: in vivo, Sprague-Dawley rats; conditions: about 1000 mg/kg sodium lactate intravenously
Experimental: FFT-EIS can be used to interrogate in vivo EAB sensors to monitor plasma lactate concentrations in a live rat in real time (FIGS. 13A and 13B). Lactate is an important clinical biomarker for sepsis and hypoxia during anesthesia, and lactate levels are useful to monitor sport performances. FFT-EIS is used to characterize the lactate-detecting EAB sensor in undiluted blood held at about 37° C. by stepwise changing the lactate level and measuring the corresponding ket value (FIG. 13A). […] Lactate concentrations can be determined in real time in a living rat by measuring changes in ket when employing the lactate detecting EAB sensor (FIG. 13B). Stable concentrations were measured prior to intravenously infusing about 1000 mg/kg sodium lactate.
The lactate aptamer is modified with a six-carbon thiol and the redox reporter methylene blue. The aptamer was reduced for 1 h in a solution containing about 11.26 μM aptamer and 8.87 mM TCEP and subsequently diluted till 500 nM in a PBS buffer plus 2 mM MgCl2. The intravenous sensors were fed through 20-gauge catheters and used the in vitro sensors as is. To form the lactate-detecting EAB sensor, the aptamer was deposited on the gold electrode by immersing the electrode for 1 h in a 500 nM reduced lactate aptamer solution followed by overnight immersion in 10 mM 6-mercaptohexanol to form a self-assembled monolayer. […]

[2] = FFT-EIS-interrogated EAB sensor in jugular vein, real-time phenylalanine concentration in fasted and non-fasted rats; assay type: in vivo, Sprague-Dawley rats
Experimental: (§1) All in vivo experiments were performed on male Sprague-Dawley rats (4-5 months old). The rats weighed between 350-500 g and were pair-housed in a standard light cycle room (12:12 regular light cycle with lights on at 8 AM). They were allowed ad libitum access to food and water and the Institutional Animal Care and Use Committee (IACUC) of the University of California at Santa Barbara approved the experimental protocol which adhered to the guidelines given by the NIH Guide for Care and Use of Laboratory Animals.
Prior to the measurement, the rats were anesthetized using 4% isofluorane in a Plexiglas anesthesia chamber. Anesthesia was then maintained via a nose cone for the entire duration of the experiment at a level of 2-3% isofluorane. The neck was shaved and dissected in order to surgically isolate the left and right jugular veins. After isolating the two jugular veins, each one was tied off using sterile 6-0 silk sutures. Prior to the measurement, the wires in the sensor were adjusted such that the counter and working electrode were exposed outside of the 20G catheter into the vein as previously described. A small incision was then made in each vein using spring-loaded microscissors that allowed us to insert the sensor-containing catheter into the right jugular vein and an infusion line into the left jugular vein. Both the sensor and drug infusion catheter were anchored in place using two sterile 6-0 silk sutures. 30 units of heparin were infused through the infusion line immediately after insertion of the sensor and prior to any recordings. To intravenously dose the rats at 30 mg/kg a precalculated volume of 0.05 M vancomycin solution was injected using a syringe pump.
Specifically, after calibrating a phenylalanine-detecting EAB sensor in vitro, FFT-EIS interrogation was used to measure the molecule's concentration in the jugular veins of anesthetized rats with 1.8 s resolution. Doing so, it was observed baseline phenylalanine concentrations of 41±10 μM (the latter reflects one standard deviation) in a fasted animal and 39±6 μM in a non-fasted animal, values in line with previous reports. Upon two intravenous infusions of additional phenylalanine, rapid rises to peak concentrations of 300-400 μM were observed, followed by rapid decays back to baseline in the fasted animal.
Reference is made to FIG. 6. Using FFT-EIS to interrogate phenylalanine-detecting EAB sensors this metabolite has been monitored in situ in the jugulars of live rats with 1.8 s resolution. Reference Is made to panel (A). A fasted animal was infused with two sequential doses of phenylalanine. In both cases, the concentration of free phenylalanine in the blood quickly decayed back to the pre-infusion baseline (41±10 μM, 31±9 μM, and 25±10 μM before injection, after the first injection, and after the final injection, respectively). Reference is made to Panel (B). In contrast, the return to the post-infusion baseline was slower in a non-fasted animal, which is consistent with previous reports regarding phenylalanine homeostasis. Here, the raw data (light points) are smoothed using a 13-s rolling average (darker trace). Concentration decay transients were fitted to a two compartment (i.e., biexponential) model (black traces).

[3] = tested on: phenylalanine-detecting EAB sensor (methylene-blue-modified aptamer); experiment: FFT-EIS binding curve of phenylalanine-detecting EAB sensor in whole, freshly-collected rat's blood at 37° C
Experimental: (§2) To functionalize the working electrode the disulfide bond was first reduced in the stock alkanethiol-and-methylene-blue modified aptamer by combining 14 μL of 10 mM tris (2-carboxyethyl) phosphine with 2 μL of 100 μM DNA for 1 h in the dark. The gold electrodes were electrochemically cleaned and roughened with Millipore water and followed by immersion for 1 h in 500 nM reduced DNA in PBS. The electrodes were then transferred to a 10 mM solution of 6-mercapto-1-hexanol in PBS and stored overnight before use.
All electrochemical measurements were performed using an Autolab PGStat128N. The potentiostat was configured in “high stability mode” with a current range of ±1 μA, which affects the filter characteristics. For FFT-EIS measurements, the multi-sin waveform was generated by a DG812 arbitrary waveform generator (Rigol Technologies) and fed into the potentiostat's external voltage input using a BNC connection. The voltage waveform consisted of a superposition of 18 sine waves at logarithmically spaced frequencies ranging from 1 Hz to 1 kHz. The amplitude and phase of each sinusoidal oscillation were optimized for maximum signal-to-noise as discussed in the supporting information of Example 7, and the summed waveform was scaled to have a peak-to-peak amplitude of 25 mV. The potentiostat's native software (NOVA) was used to set the DC bias—the formal potential of methylene blue, as measured by cyclic voltammetry—on top of the AC perturbation. Voltage and current were recorded at 70 kHz using an SDS1202X-E oscilloscope. […] Data recording and processing were controlled by a custom Python program. Further details on the chosen waveform and artefact correction are described in supporting information of Example 7 (FIG. 7, FIG. 9, FIG. 11).
Impedance spectra were fitted to the equivalent circuit model using MEISP 3.0 after each experiment was complete. […]
Reference is made to FIG. 12. […] The endogenous concentration of phenylalanine in the blood (52 μM) was determined e using a fluorescent assay kit. […]

[4] = FFT-EIS-interrogated EAB sensor in jugular vein, real-time plasma vancomycin after intravenous infusion; assay type: in vivo, Sprague-Dawley rats; conditions: rat jugular vein
Experimental: as §1
Prior to the measurement, the rats were anesthetized using 4% isofluorane in a Plexiglas anesthesia chamber. […]
Aptamer-modified gold wire working electrodes were bundled with platinum counter and silver-silver chloride reference electrodes in a 20-gauge catheter (FIG. 4, panel A), and surgically inserted the resulting three-electrode sensor into the right jugular vein of an anesthetized rat. Full impedance spectra (containing 18 frequencies between 1 Hz and 1 kHz, FIG. 9) was then measured every 1.8 second for 2.5 hours. […]
FFT-EIS interrogation of EAB sensors provides a highly-time-resolved window into molecular physiology and pharmacokinetics (FIG. 5, panel A). […] Prior to drug infusion, vancomycin concentrations were measured fluctuating tightly around zero (1.1±1.7 μM). […]

[5] = biological target: vancomycin-detecting EAB sensor (methylene-blue-modified aptamer); experiment: FFT-EIS binding curve (ket vs concentration) of vancomycin-detecting EAB sensor in whole bovine blood at 37° C; conditions: ± = estimated 95% confidence intervals, read-out: dissociation constant (KD), Hill-Langmuir isotherm fit of ket
Experimental: as §2
All electrochemical measurements were performed using an Autolab PGStat128N. The potentiostat was configured in “high stability mode” with a current range of ±1 μA, which affects the filter characteristics. […] The potentiostat's native software (NOVA) was used to set the DC bias—the formal potential of methylene blue, as measured by cyclic voltammetry—on top of the AC perturbation. Voltage and current were recorded at 70 kHz using an SDS1202X-E oscilloscope. […]
Reference is made to FIG. 3. In panel (A) the vancomycin-detecting EAB sensor was immersed in whole bovine blood at 37° C. and challenged with increasing quantities of the target molecule. […]
The impedimetric properties of EAB sensors, which are sensitive to target concentration, can be rapidly measured using FFT-EIS to enable highly-time resolved molecular measurements. […]

[6] = fasted animal, first injection, ± = 95% confidence intervals
[7] = fasted animal, second injection, ± = 95% confidence intervals

SMILES: CC(O)C(=O)O (stereo not drawn) [lactate]
plasma lactate level course after infusion [1]: gradually returned to the prior baseline

baseline concentration after the final injection ([2]; fasted animal): 25 ± 10 µM
baseline concentration after the first injection ([2]; fasted animal): 31 ± 9 µM
time constant τ1, biexponential decay [2, 6]: 0.2 ± 0.1 min
time constant τ2, biexponential decay [2, 6]: 3.8 ± 0.2 min
time constant τ1, biexponential decay [2, 7]: 1.7 ± 0.1 min
time constant τ2, biexponential decay [2, 7]: 20 ± 2 min
peak concentration after intravenous infusion ([2]; fasted animal, two intravenous infusions): 300 to 400 µM
baseline concentration before injection ([2]; fasted animal, ± = one standard deviation): 41 ± 10 µM
baseline concentration ([2]; non-fasted animal): 39 ± 6 µM
time constant T2, biexponential decay ([2]; non-fasted animal): 35 ± 7 min
time constant τ1, biexponential decay ([2]; non-fasted animal): 3.3 ± 0.1 min
ket,0 (ket in the absence of phenylalanine) ([3]; fitted): 62.9 s⁻¹
ket,max (ket at saturating phenylalanine) ([3]; fitted): 225.8 s⁻¹
Kd ([3]; read-out: dissociation constant KD, Langmuir isotherm fit of ket): 6.89 mM
SMILES: N[C@@H](Cc1ccccc1)C(=O)O [phenylalanine]

SMILES: CN[C@H](CC(C)C)C(=O)N[C@H]1C(=O)N[C@@H](CC(N)=O)C(=O)N[C@H]2C(=O)N[C@H]3C(=O)N[C@H](C(=O)N[C@H](C(=O)O)c4cc(O)cc(O)c4-c4cc3ccc4O)[C@H](O)c3ccc(c(Cl)c3)Oc3cc2cc(c3O[C@@H]2O[C@H](CO)[C@@H](O)[C@H](O)[C@H]2O[C@H]2C[C@](C)(N)[C@H](O)[C@H](C)O2)Oc2ccc(cc2Cl)[C@H]1O [vancomycin]
time constant of monoexponential concentration decay ([4]; after 30 mg/kg intravenous infusion, three separate animals, ± = 95% confidence intervals): 33.1 ± 0.5 min and 37.3 ± 0.7 min and 47.4 ± 1.3 min
measured concentration prior to drug infusion ([4]; pre-infusion): 1.1 ± 1.7 µM
Kd [5]: 0.144 ± 0.031 mM

Source: patent US20260235546A1, “Methods and Systems for Interrogating Electrochemical Sensors” (The Regents of the University of California, priority 2023, published 2026)
